Laboratory results from patent US5041542A, “Substituted pyrimido[5,4-d]pyrimidine nucleosides” (Nucleic Acid Research Institute, priority 1988, dated 1991).

Legend:
[1] = tested on: DNA and RNA viruses; conditions: cited from earlier work
[2] = tested on: CEM-V cells; assay: Growth inhibition of normal, uninfected cells (HIV test); assay type: cell-based; conditions: Homo sapiens, 168 h
Protocol: (§1) Compound 8 was evaluated by the National Cancer Institute for in vitro activity against human immunodeficiency virus (HIV: cell line:CEM-V). In this test the compound was screened using human "host" cells with and without virus. The test is conducted for seven days (during which time infected, non-drug treated control cells are largely or totally destroyed by the virus), and then the number of remaining viable cells are determined. […] A therapeutic index (TI) can be calculated as the IC/EC ratio.

[3] = tested on: human immunodeficiency virus; assay: In vitro activity against HIV, viral cytopathic effect; assay type: cell-based
Protocol: as §1

[4] = Intracellular phosphorylation (SAX-HPLC); assay type: cell-based
[5] = tested on: L1210 leukemia; conditions: mouse, in vivo; cited from earlier work
[6] = in vivo; conditions: mouse, ip
[7] = Anomerization in aqueous solution (reverse-phase HPLC); assay type: physicochemical; conditions: buffered, 37° C., 9 h, no added protein
Protocol: This would be expected where the rate of anomerization is slow compared to the rate of deamination.
The compounds of the invention are capable of crossing the cell membrane, and activated to the 5'-phosphate, thus causing the inhibition of the de novo purine biosynthesis.
HPLC Analysis: Sample components were separated with an LKB model 2150 gradient HPLC system at ambient temperature on an Altex Ultrashere-ODS reverse phase column (Beckman) developed with a linear gradient of buffer A (10 mM KPO4 ', pH 3.83) to 20% component B (60% aqueous CH3 CN) at a combined flow rate of 1.0 mL/min over 15 min. Ultraviolet (UV) absorbance was monitored with an LKB model 2140 diode array detector. Inhibition of de novo purine biosynthesis: WI-L2 or adenosine kinase-deficient cells were preincubated at 37° C. with drug for various time periods prior to labeling with [^14 C]formate. Enzyme Assays: Adenosine kinase inhibition studies were accomplished by the filter binding assay method. Inhibition studies were done at 37° C. with an assay mixture containing 4 mM ATP, 1.5 mM MgCl2, 5 or 10 μM [8-^14 C] adenosine (50 mCi/mmol) and 100 mM Tris-maleate, pH 5.5. To prevent the enzymatic breakdown of adenosine, erythro-9-(2-hydroxy-3-nonyl)adenine (EHNA) was added to the cell-free WI-L2 lysate to give 5 μM final assay concentration. The assay was started by the addition of protein. The amount of enzyme, time of assay and sampling volume were adjusted to give acceptable conversion of [8-^14 C] adenosine to [8-^14 C]AMP. Each DE-81 filter was spotted with a constant sampling volume and immersed in H 2 O (4 L) to terminate the reaction. Filters were washed three times with H2 O (4 L) and once with EtOH (100 mL). Dry filters were placed in scintillation vials and radioactivity was counted with 10 mL toluene-based scintillation cocktail.

[8] = biological target: T1, WI-L2 adenosine kinase (Homo sapiens, UniProt P55263); assay: Adenosine kinase inhibition (filter binding assay); assay type: biochemical; conditions: decrease in rate of [14C]AMP formation from [14C]adenosine
T1 construct: added to the cell-free WI-L2 lysate to give 5 μM final assay concentration; endogenous in cells; host or cells: WI-L2 B lymphoblast cells (cell-free lysate)
T1 sequence (P55263 whole entry): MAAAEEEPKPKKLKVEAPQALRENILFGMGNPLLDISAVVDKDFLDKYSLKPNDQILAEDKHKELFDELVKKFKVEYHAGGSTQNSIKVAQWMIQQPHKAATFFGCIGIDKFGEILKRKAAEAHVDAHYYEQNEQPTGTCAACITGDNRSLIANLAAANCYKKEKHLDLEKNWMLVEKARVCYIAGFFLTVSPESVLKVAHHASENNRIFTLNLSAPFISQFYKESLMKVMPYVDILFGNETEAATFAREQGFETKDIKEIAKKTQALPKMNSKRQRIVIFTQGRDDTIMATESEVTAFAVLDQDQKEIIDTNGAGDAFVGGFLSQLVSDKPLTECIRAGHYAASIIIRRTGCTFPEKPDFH

[9] = tested on: Herpes 2, parainfluenza 3 and Vaccinia; assay type: cell-based; conditions: tested in parallel with ARPP (8)

Row | SMILES | antiviral activity in cell culture (cited) [1] | IC50 ([2]; read-out: IC50 (50% growth inhibition), seven days) [nM] | IC90 ([2]; seven days) [nM] | EC50 ([3]; Human immunodeficiency virus 1, 168 h, read-out: EC50 (50% reduction of viral cytopathic effect)) [nM] | EC90 ([3]; Human immunodeficiency virus 1, 168 h, HIV, CEM-V cells, seven days, read-out: EC90 (90% reduction of viral cytopathic effect)) [nM] | therapeutic index at 50% (IC/EC ratio) ([3]; IC50/EC50, HIV, CEM-V, 10080 min) | therapeutic index at 90% (IC/EC ratio) ([3]; IC90/EC90, HIV, CEM-V, 10080 min) | intracellular phosphate formation [4] | growth of L1210 leukemia in mice (cited) [5] | MTD [6] [mg/kg] | 21 (anomeric mixture) formed from compound 14 [7] [%] | α-anomer 17 formed from compound 14 [7] [%] | direct inhibition of adenosine kinase [8] | Antiviral activity in cell culture [9]
1 | Nc1ncnc2c(N[C@@H]3O[C@H](CO)[C@@H](O)[C@H]3O)ncnc12 [Compound 8, 4-Amino-8-(β-D-ribofuranosylamino)pyrimido[5,4-d]pyrimidine, reference compound] | antiviral activity for DNA and RNA viruses in cell culture by inhibiting viral protein synthesis | 1950 | 6600 | 95.1 | 768 | 2.05×10^1 | 8.60×10^0 | formation of intracellular ARPP 5'-monophosphate but no higher phosphate analogues | inhibits the growth of L1210 leukemia in mice | – | – | – | – | –
2 | COc1ncnc2c(N[C@@H]3O[C@H](CO)[C@@H](O)[C@H]3O)ncnc12 [Compound 14, 4-Methoxy-8-(β-D-ribofuranosylamino)pyrimido[5,4-d]pyrimidine] | – | – | – | – | – | – | – | – | – | 62 | 0.42 | 1.35 | Direct inhibition | antiviral activity
